{
  "source": "patent US20250332182A1",
  "about": "“Galactooligosaccharides for improving immune response” (N.V. Nutricia, priority 2021, published 2025)",
  "key": {"[1]": {"system": "CD25+ FoxP3+ Treg cells", "conditions": "spleen of vaccinated mice; DON in the diet"}, "[2]": {"system": "T1ST2+Th2 cells", "conditions": "spleen; DON in the diet"}, "[3]": {"system": "IL-4, IL-6, IL-13, TNF-α and MIP-2", "conditions": "re-stimulated splenocytes of vaccinated mice; dietary DON"}, "[4]": {"system": "CXCR3+Th1 cells", "conditions": "spleen; DON in the diet"}, "[5]": {"system": "vaccine-specific immunoglobulin", "conditions": "vaccinated mice; DON in the diet"}},
  "data": [
    {"smiles": "CC1=C[C@H]2O[C@@H]3[C@H](O)C[C@](C)([C@@]2(CO)[C@H](O)C1=O)[C@]31CO1", "note": "[DON, deoxynivalenol]", "values": [
      {"measurement": "percentage of CD25+ FoxP3+ Treg cells", "setting": "[1]", "result": "not significantly affected"},
      {"measurement": "effect on T1ST2+Th2 cells", "setting": "[2]", "result": "No significant effect"},
      {"measurement": "concentrations of IL-4, IL-6, IL-13, TNF-α and MIP-2 in cell supernatants", "setting": "[3]", "result": "No significant effect"},
      {"measurement": "effect on CXCR3+Th1 cells", "setting": "[4]", "result": "No significant effect"},
      {"measurement": "vaccine-specific immunoglobulin production", "setting": "[5]", "result": "reduced"}
    ]}
  ]
}
